This is an account of results in article PMC10412585 (Nature Communications, 2023).

For one test, the system named is HLA-E. Nature of the test: HLA-E surface stabilization assay with RMA-S/HLA-E cells. In kind it is cell-based, human. Particulars: peptide 3-300 µM (Fig. 3: 30 µM) in OptiMEM, 16 h, 37 °C, anti-HLA-E 3D12, flow cytometry, n = 4 replicate experiments. (In general: Flow cytometry measures light scatter and fluorescence of single cells or particles in a stream.)
The target of the next test is T1, CD94/NKG2A (Homo sapiens, UniProt P26715+Q13241).
T1 construct: The C-terminus of human NKG2A or NKG2C ectodomain was connected via a GGSGGS linker to human CD94 ectodomain; AviTag biotinylation tag (C); poly-histidine tag (C); made in house; host or cells: baculovirus, High Five (Hi5) insect cells
Description: CD94/NKG2A tetramer staining of yeast-displayed peptide-HLA-E. It counts as binding. Particulars: yeast-displayed single chain trimer, 500 nM tetramer, 2 h, 4 °C, flow cytometry. The text has this:
To study the diversity of the HLA-E peptide repertoire recognized by CD94/NKG2x, we adapted an MHC yeast surface display system previously used to study class Ia MHC-restricted TCR recognition[25],[26]. In this system, peptide, Beta-2-microglobulin (β2M), and MHC heavy chain are covalently linked to each other and fused to the N-terminus of the yeast mating factor protein Aga2p (Fig. 1A, B). The HLA-E single chain trimer construct expressed well on the yeast surface, as confirmed via staining for an included hemagglutinin (HA) epitope tag and via an anti-HLA-E antibody (Fig. 1C). Since epitope tag staining assesses construct expression rather than protein fold[27]–[29], we tested peptide-HLA-E (pHLA-E) fold by staining with its cognate NK receptors. […] (Supplemental Fig. 1A, E–G), though both receptors were able to bind and enable selective enrichment of […]/HLA-E-expressing yeast using avid streptavidin-coated beads (Supplemental Fig. 1B–D).
To stain peptide-HLA-E (pHLA-E) with CD94/NKG2x tetramers, each biotinylated receptor was mixed with streptavidin coupled to AlexaFluor647 (SAV-647, made in-house) at a 5:1 ratio and incubated for 5 min on ice. Yeast were stained with 500 nM tetramer for 2 h at 4 °C in the dark with rotation. […]

T1 sequence (Q13241 whole entry, looked up, the tested form may be a part): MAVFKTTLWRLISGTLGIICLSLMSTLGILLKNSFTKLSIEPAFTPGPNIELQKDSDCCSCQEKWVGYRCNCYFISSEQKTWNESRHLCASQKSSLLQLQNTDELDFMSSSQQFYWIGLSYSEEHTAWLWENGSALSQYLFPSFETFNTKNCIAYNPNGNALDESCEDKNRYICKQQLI
T1 sequence (P26715 whole entry, looked up, the tested form may be a part): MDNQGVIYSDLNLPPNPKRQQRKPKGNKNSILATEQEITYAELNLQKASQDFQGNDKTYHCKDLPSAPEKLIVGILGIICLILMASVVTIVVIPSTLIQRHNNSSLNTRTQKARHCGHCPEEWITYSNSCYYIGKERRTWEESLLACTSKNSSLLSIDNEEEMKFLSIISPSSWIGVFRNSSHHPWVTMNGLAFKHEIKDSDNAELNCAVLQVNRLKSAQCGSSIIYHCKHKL

For the sequence “VNPGRSLFL [BFAR263-271, human peptide from Bifunctional apoptosis regulator]”, the “stabilization of HLA-E surface expression” value in the test on HLA-E was “weak but detectable stabilization”.
For the sequence VMAPRTLFL [positive control], on CD94/NKG2A, the CD94/NKG2A tetramer staining entry was “positively stained cells”.
